Our source for the inhibition values is ChEMBL document CHEMBL1127130, “Peptidomimetic inhibitors of renin incorporating topographically modified isosteres spanning the P1( P3)-P1' sites” (Bioorg Med Chem Lett, 1993).

The target of the assay is T1, Renin (Homo sapiens) (UniProt P00797).
T1 sequence (whole entry): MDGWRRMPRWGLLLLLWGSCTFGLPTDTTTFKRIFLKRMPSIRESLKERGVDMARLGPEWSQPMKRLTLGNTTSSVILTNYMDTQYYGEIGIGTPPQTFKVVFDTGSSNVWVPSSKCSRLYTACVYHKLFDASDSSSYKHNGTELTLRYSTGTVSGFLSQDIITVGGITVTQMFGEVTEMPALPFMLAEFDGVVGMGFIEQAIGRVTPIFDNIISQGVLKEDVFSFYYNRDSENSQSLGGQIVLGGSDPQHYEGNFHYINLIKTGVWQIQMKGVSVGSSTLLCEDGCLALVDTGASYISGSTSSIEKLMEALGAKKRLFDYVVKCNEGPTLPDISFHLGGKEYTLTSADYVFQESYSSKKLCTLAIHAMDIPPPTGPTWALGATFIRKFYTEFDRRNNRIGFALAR
The assay is described as follows: The compound was evaluated for inhibitory activity against monkey plasma renin at concentration of […]. The format is cell-free. As to conditions: Cercopithecidae, target entry is the homologue from another species.

A word on the inhibition: it is the percentage by which the read-out fell short of the control.

As for `C=CC[C@H](NC(=O)CNS(=O)(=O)N1CCOCC1)C(=O)N[C@@H](CC1CCC(CCC(C)C)CC1)[C@@H](O)[C@@H](O)CC(C)C` (stereo partly specified), the inhibition was 29%.
